Source: ChEMBL document CHEMBL3632499, “Synthesis and Antiproliferative Activity Evaluation of the Disulfide-Containing Cyclic Peptide Thiochondrilline C and Derivatives” (J Nat Prod, 2015)
pEC50: −log10 of the molar value. Positions of bridges follow the written chain, without caps; N, C: chain ends. Non-standard residues stand in square brackets, D forms with d. Residues, ends and D or L forms follow the SMILES beside them. *: point of attachment. Quinaldoyl(3-OH) = O=C(c1nc2ccccc2cc1O)*; NMeC = CN[C@@H](CS)C(=O)O

How the values were obtained:
A549 [1] = assay: Antiproliferative activity against human A549 cells assessed as growth inhibition at 10 uM; type: functional; details: read-out: GI
A549 [2] = assay: Cytotoxicity against human A549 cells; type: functional, cell-based

| SMILES | inhibition of growth at 10 µM (A549 [1]) [%] | pEC50 (A549 [2]) |
| --- | --- | --- |
| COC(=O)[C@H](C)N(C)C(=O)[C@@H]1CSSC[C@@H](NC(=O)c2nc3ccccc3cc2O)C(=O)NCC(=O)N1C | < 30 |  |
| COC(=O)[C@H](CSC)N(C)C(=O)[C@@H]1CSSC[C@@H](NC(=O)c2nc3ccccc3cc2O)C(=O)NCC(=O)N1C ({Quinaldoyl(3-OH)}-[dC]G[NMeC][NMeC](Me)-OMe; disulfide 1-3) |  | 5.54 |
